Data set [1] concerns the target Glutamate [NMDA] receptor (Homo sapiens) (UniProt Q05586+Q12879+Q13224+O15399+O60391+Q14957+Q8TCU5). The data set can be described thus: Antagonist activity at recombinant human NMDA receptor assessed as inhibition of agonist-induced cAMP levels at 10 uM. It counts as protein-complex assay. For orientation: Cyclic AMP is a second messenger, typically raised through Gs and lowered through Gi signalling.

In data set [2] the target is T1, Endothelin-1 receptor (Homo sapiens) (UniProt P25101).
T1 sequence (whole entry): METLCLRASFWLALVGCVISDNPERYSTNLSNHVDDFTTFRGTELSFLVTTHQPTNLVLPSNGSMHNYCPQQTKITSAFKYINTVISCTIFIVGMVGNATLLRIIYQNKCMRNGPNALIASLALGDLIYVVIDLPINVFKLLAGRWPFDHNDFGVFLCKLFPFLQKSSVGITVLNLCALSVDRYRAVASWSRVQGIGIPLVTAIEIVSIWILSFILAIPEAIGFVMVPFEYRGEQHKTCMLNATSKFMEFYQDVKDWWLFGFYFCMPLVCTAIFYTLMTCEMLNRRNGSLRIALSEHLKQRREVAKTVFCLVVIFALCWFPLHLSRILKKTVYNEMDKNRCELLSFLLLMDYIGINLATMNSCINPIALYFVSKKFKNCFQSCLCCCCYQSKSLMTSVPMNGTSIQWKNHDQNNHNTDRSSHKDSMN
The data set can be described thus: Antagonist activity at recombinant human ETA receptor assessed as inhibition of agonist induced effect at 10 uM by aequorin reporter based assay. It counts as functional.

The target of data set [3] is T2, Type-1 angiotensin II receptor (Homo sapiens) (UniProt P30556).
T2 sequence (whole entry): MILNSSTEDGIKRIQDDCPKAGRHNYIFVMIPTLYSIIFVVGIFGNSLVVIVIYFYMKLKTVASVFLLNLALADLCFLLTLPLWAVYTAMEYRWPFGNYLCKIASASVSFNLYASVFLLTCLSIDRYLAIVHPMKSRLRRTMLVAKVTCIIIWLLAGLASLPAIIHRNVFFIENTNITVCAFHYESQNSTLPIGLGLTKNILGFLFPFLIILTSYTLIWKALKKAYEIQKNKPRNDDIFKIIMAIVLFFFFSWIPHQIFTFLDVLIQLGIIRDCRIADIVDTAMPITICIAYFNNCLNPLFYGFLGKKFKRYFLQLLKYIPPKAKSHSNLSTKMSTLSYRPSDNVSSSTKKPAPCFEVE
The data set can be described thus: Antagonist activity at recombinant human AT1 receptor assessed as inhibition of agonist-induced […] reporter based assay. The data set is classed as functional.

Data set [4] has as its target T3, Adenosine receptor A1 (Homo sapiens) (UniProt P30542).
T3 sequence (whole entry): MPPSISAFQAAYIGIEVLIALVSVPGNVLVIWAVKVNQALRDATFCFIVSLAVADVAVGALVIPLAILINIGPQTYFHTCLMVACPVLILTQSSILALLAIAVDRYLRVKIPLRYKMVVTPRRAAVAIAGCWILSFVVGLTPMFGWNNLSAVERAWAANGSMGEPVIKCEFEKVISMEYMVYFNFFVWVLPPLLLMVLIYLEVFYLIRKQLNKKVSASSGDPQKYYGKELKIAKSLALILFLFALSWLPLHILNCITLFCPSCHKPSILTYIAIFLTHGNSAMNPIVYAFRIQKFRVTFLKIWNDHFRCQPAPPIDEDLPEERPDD
The data set can be described thus: Antagonist activity at recombinant human adenosine A1 receptor assessed as inhibition of agonist-induced cAMP induction at 10 uM by HTRF assay. It counts as functional.

A short description of data set [5]: Aqueous solubility of the compound in PBS buffer at pH 7.8. It counts as physicochemical.
A short description of data set [6]: Metabolic stability in human liver microsomes by LC/MS analysis. It counts as ADME, microsome.
A short description of data set [7]: n-Octanol-PBS buffer distribution coefficient, log D of the compound at pH 7.4. It counts as physicochemical.
The target in data set [8] is Sigma intracellular receptor 2 (Homo sapiens, UniProt Q5BJF2). The data set can be described thus: Displacement of [3H]-DTG from S2R in human Jurkat cell membranes after 1 hr in presence of (+)-pentazocine by liquid scintillation counting. For orientation: Displacement assays read how much labelled ligand stays bound in the presence of the test substance.
Chain of Sigma intracellular receptor 2 (Q5BJF2 whole entry): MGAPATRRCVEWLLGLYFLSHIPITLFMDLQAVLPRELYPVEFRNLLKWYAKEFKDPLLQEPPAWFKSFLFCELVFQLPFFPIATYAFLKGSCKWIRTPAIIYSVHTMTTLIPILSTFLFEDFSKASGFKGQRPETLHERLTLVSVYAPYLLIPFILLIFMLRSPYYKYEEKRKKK
For data set [9], the target named is Sigma non-opioid intracellular receptor 1 (Homo sapiens, UniProt Q99720). The data set can be described thus: Displacement of [3H](+)-pentazocine from S1R in human Jurkat cell membranes after 2 hrs by liquid scintillation counting.
Chain of Sigma non-opioid intracellular receptor 1 (Q99720 whole entry): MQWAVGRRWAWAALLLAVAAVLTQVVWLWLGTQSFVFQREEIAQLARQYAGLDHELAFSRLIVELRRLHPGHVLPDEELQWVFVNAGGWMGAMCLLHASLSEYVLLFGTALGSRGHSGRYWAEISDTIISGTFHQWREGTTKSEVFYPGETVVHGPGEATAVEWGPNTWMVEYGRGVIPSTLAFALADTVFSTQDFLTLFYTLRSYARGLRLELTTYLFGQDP

The record followed here is ChEMBL document CHEMBL4130363, “Synthesis and pharmacological evaluation of benzamide derivatives as potent and selective sigma-1 protein ligands” (Eur J Med Chem, 2017).

Values after ≈ are worked out from the molar mass of the structure shown.

As to `CN(CCNC(=O)c1ccc([N+](=O)[O-])cc1)Cc1ccccc1`, the inhibition (usually the change of the read-out against control, counted positive when it falls) in data set [1] was 3%.
As for `CN(CCCNC(=O)c1cccc(Br)c1)Cc1ccccc1`, the inhibition in data set [2] was -9%; in data set [1], 5%; in data set [3], 7%.
For `CCCc1ccc(C(=O)NCCCN(C)Cc2ccccc2)cc1`, the figures for the inhibition in data set [1], in [4] and in data set [3] were 15%, -9% and -6%, respectively.
As to `CN(CCCNC(=O)c1ccc(Br)cc1)Cc1ccccc1`, the inhibition in data set [1] is 5%.
Regarding `COc1ccc(C(=O)NCCCN(C)Cc2ccccc2)cc1`, the inhibition in data set [2] was -1%; in [3] it was -10%.
Regarding `CN(CCCNC(=O)c1ccc(Cl)cc1)Cc1ccccc1`, the inhibition in data set [2] was -5%; in data set [1] it was 8%; in data set [3], -3%. Moreover, the solubility (as a rule, how much of the substance goes into solution per volume) in [5] is 173 µM (≈ 54.8 µg/mL). The Stability in data set [6] stood at 77%. The logD (usually lipophilicity at a set pH, counting ionised and neutral species) in [7] turned out to be 2.51.
On to `CN(CCCNC(=O)c1ccc([N+](=O)[O-])cc1)Cc1ccccc1`, for which the inhibition was 0% in data set [2], 12% in [1] and 17% in data set [3].
Taken in the same sequence, the figures for `CN(CCCNC(=O)c1ccc(C(F)(F)F)cc1)Cc1ccccc1` were 2%, 14% and -2%.
On to `CN(CCNC(=O)c1ccc(C#N)cc1)Cc1ccccc1`, for which the results for the inhibition in data set [2], in [1] and in data set [4] were 6%, 1% and 2%, respectively.
As to `CN(CCCNC(=O)c1ccc(Cl)cc1)CCc1ccccc1`, the inhibition in data set [1] is 16%; in data set [4] it was -10%; in data set [3], 11%.
With `CN(CCNC(=O)c1ccc(Cl)cc1)Cc1ccccc1`, the inhibition in data set [2] was -9%; in [1], 4%; in data set [3], 21%. Further, the values for the Ki in data set [8] and in data set [9] were 850 nM and 3.6 nM, respectively.
`COc1cccc(C(=O)NCCCN(C)Cc2ccccc2)c1`: the inhibition in data set [2] was 5%; in [1] it was 0%; in [4] it was -2%; in data set [3], 20%.
